Laboratory results from patent publication US11117856B2, “Polyamine compounds targeting the efflux pumps of multi-drug resistant bacterial pathogens and methods of using the same” (UNIVERSITY OF SOUTH FLORIDA, priority 2016, dated 2021).

Key:
[1] = system: tetracycline resistant strain of P. aeruginosa; test: Checkerboard potentiation assay with tetracycline; format: cell-based
Description: (§1) The bacterial strains used in this study are multi-drug resistant clinical isolates that have previously been described (TABLE 2) (Fleeman, et al. J. Med. Chem. 2015, 58, 3340-3355). Organisms were grown in tryptic soy broth (TSB) for overnight cultures, and cation adjusted Mueller Hinton broth (CA-MH II) was used for experimental procedures. All incubations were performed at 37° C.
(§2) Scaffold ranking library samples and individual polyamines were screened using checkerboard inhibitory assays to assess the potentiation of tetracycline and chloramphenicol. The test utilized a 96-well plate microtiter assay where the concentration of the scaffold or individual polyamine was decreased from 25 μg mL^−1 to 0.8 μg mL^−1 (average molarity of 65 μM to 4 μM) along the rows, and the concentration of tetracycline or chloramphenicol was increased from 0.4 μM to 100 μM across the columns. Plates were incubated statically at 37° C. for 20 hours, and the optical density (OD600) was determined using a Synergy 2 plate reader (Biotek). Potentiation modeling (detailed below) was performed to determine fold change in the 50% and 90% effective concentration of tetracycline or chloramphenicol.
Potentiation was quantified using a mathematical model developed by our group to assess the ability of library samples and individual compounds to effectively enhance the activity of tetracycline or chloramphenicol (Hoel, D. G. Statistical Aspects of Chemical Mixtures. Methods for assessing the effects of mixtures of chemicals. 1987, New York). […] In this way, only libraries and compounds that potentiated tetracycline or chloramphenicol activity were pursued. The model is based on the following equation for modeling the percentage activity of a mixture of two agents with independent action (Hoel, et al. Statistical Aspects of Chemical Mixtures. Methods for assessing the effects of mixtures of chemicals. 1987, New York): %Antibiotic & Comp(x1,x2)=%Antibiotic(x1)+%Comp(x2)−%Antibiotic(x1)·%Comp(x2)
Here, x1 and x2 are the concentrations of antibiotic (tetracycline or chloramphenicol) and library/compound (Comp) tested, respectively. This equation can be rearranged to model the effective percent activity (EC) of the antibiotic alone, after accounting for compound activity:
[formula] Thus, the model-adjusted checkerboards show the antibiotic activity post-potentiation, and from that one can determine the true change in MIC.

[2] = system: P. aeruginosa; test: Checkerboard potentiation assay with chloramphenicol; format: cell-based; conditions: increasing EPI concentration, dose response
Description: as §1
as §2, with “Potentiation modeling (detailed below) was performed to determine fold change in the 50% and 90% effective concentration of tetracycline or chloramphenicol.” left out
Potentiation was quantified using a mathematical model developed by our group to assess the ability of library samples and individual compounds to effectively enhance the activity of tetracycline or chloramphenicol (Hoel, D. G. Statistical Aspects of Chemical Mixtures. Methods for assessing the effects of mixtures of chemicals. 1987, New York). […]

[3] = system: Hek293T cells; test: MTT cytotoxicity assay; format: cell-based, human; conditions: 25 μg mL^−1, 48 hours
Description: To assess toxicity of polyamine compounds we used HepG2 human liver carcinoma cells and Hek293T human embryonic kidney epithelial cells. […] J. Med. Chem. 2015, 58, 3340-3355). […] Cells were then incubated for 48 hours at 37° C. with 5% CO2. Following this, viability was assessed by the addition of MTT and measuring the OD570 in a Biotek plate reader. Percent recovery was determined compared to no drug controls.

[4] = system: P. aeruginosa; test: Bactericidal assessment with tetracycline; format: cell-based
Description: (§3) Lead agents were screened for bactericidal activity as described previously (Van Horn, et al. J. Med. Chem. 2014, 57, 3075-3093; […], et al. J. Med. Chem. 2015, 58, 3340-3355), with the following modifications. […] Biofilm experiments were performed similar to those described previously ([…], et al. J. Med. Chem. 2015, 58, 3340-3355; von Salm, et al. Org. Lett. 2016, 18, 2596-2599), with the following modifications.

[5] = system: P. aeruginosa biofilm; test: Pre-formed biofilm viability assessment with tetracycline; format: cell-based;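 as to biofilm recovery, combination treatment: percent recovery versus no treatment controls after 20 Hours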
Description: as §3

[6] = 50 μM tetracycline + MPC of EPI

SMILES: CNCCCC[C@H](CN)NC[C@H](Cc1ccccc1)NCCc1ccccc1 [TPI 266, (R)—N^6-methyl-N^2—((S)-2-(phenethylamino)-3-phenylpropyl)hexane-1,2,6-triamine]
- FP* (Fold Potentiation, EC50) ([1]; EC50 tetracycline with no TPI/with TPI, 25 μg mL^−1 TPI): 6.8 fold
- FP^# (Fold Potentiation, EC90) ([1]; EC90 tetracycline with no TPI/with TPI, 25 μg mL^−1 TPI): 5.8 fold
- FP*^c (Fold Potentiation, EC50) ([1]; Table 1, tetracycline EC50): 6.8 fold
- FP^#c (Fold Potentiation, EC90) ([1]; Table 1, tetracycline EC90): 5.8 fold
- TPI (inhibitory concentration of the polyamines alone to produce EC values) ([1]; polyamine alone, no tetracycline, 25 μg mL^−1 highest concentration tested): >25 µg/mL
- potentiation of chloramphenicol EC90 [2]: highest potentiation values
- percent recovery of Hek293T cells compared to solvent only controls [3]: 72%
- percent recovery, combination treatment ([4]; 12 μM tetracycline + MPC of EPI): 0.76%
- percent recovery, combination treatment [4, 6]: 0.01%
- biofilm recovery, combination treatment ([5]; 25 μM tetracycline + MPC of EPI): 1%
- biofilm cells recovered, EPI alone ([5]; 25 μg mL^−1 (MPC), no tetracycline): 92%
- biofilm recovery, combination treatment [5, 6]: 0.6%
